Source: US11478460B2, “Diaryl substituted 6,5-fused ring compounds as C5aR inhibitors” (CHEMOCENTRYX, INC., priority 2017, dated 2022)

Each compound was assayed against C5aR (Homo sapiens (Human), UniProt P21730) (assay: Chemotaxis assay using U937 cells (C5aR mediated migration)). Details: read-out: Mig IC50.
Chain of C5aR (P21730 whole entry): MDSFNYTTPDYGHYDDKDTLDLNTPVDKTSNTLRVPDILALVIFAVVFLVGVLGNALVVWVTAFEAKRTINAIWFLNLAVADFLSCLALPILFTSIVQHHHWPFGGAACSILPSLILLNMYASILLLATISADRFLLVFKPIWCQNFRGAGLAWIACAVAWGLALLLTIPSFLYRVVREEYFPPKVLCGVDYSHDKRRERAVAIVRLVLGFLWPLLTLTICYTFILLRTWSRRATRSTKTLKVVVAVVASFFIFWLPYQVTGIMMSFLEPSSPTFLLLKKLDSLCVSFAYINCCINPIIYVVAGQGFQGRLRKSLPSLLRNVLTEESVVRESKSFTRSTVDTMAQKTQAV
Assay type: cell-based
In short: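 U937 monocytic cells, pretreated overnight with 0.5 mM cyclic AMP, placed at 100,000 cells in the upper well above 5 μm polycarbonate filters. Lower well held 0.03 nM C5a plus compound in HBSS/1% FBS; after 1.5 h at 37° C migrated cells counted directly or by CyQuant, giving IC50.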
For `Cc1cccc(OCC(C)C)c1-n1nc2c(c1-c1cc(F)c(NC(N)=O)cc1Cl)CN(c1ncc(C(F)(F)F)cc1F)CC2` [Example 1.217], the IC50 was at most 5 nM.
With `Cc1cccc(OCC(C)C)c1-n1nc2c(c1-c1ccc(NC(N)=O)c(F)c1)CN(c1ncc(C(C)C)cc1F)CC2` [Example 1.218] the IC50 was at most 5 nM.
In the case of `CCc1cccc(CC)c1-n1nc2c(c1-c1ccc(NC(N)=O)c(F)c1)CN(C(CC)CC)CC2` [Example 1.219], the IC50 is reported as 5 to 50 nM.
With `C=C(C)c1cnc(N2CCc3nn(-c4c(C)cccc4OCC(C)C)c(-c4ccc(NC(N)=O)c(F)c4)c3C2)c(F)c1` [Example 1.220] the IC50 was at most 5 nM.
Compound `CCc1cccc(CC)c1-n1nc2c(c1-c1ccc(NC(N)=O)c(F)c1)CN(C(C)(C)CC)CC2` [Example 1.221] has an IC50 of 50 to 500 nM.
`Cc1cccc(OCC(C)C)c1-n1nc2c(c1-c1ccc(NC(N)=O)c(F)c1Cl)CN(c1ncc(C(F)(F)F)cc1F)CC2` [Example 1.222] was tested, and the IC50 was at most 5 nM.
Compound `CCc1cccc(CC)c1-n1nc2c(c1-c1ccc(NC(N)=O)c(F)c1)CN(C(C)C1CCCCC1)CC2` (stereo not drawn) [Example 1.223] has an IC50 of at most 5 nM.
For `Cc1cnc(N2CCc3nn(-c4c(C)cccc4OCC(C)C)c(-c4ccc(NC(N)=O)c(F)c4)c3C2)c(F)c1` [Example 1.224], the IC50 was at most 5 nM.
`Cc1cccc(OCC(C)C)c1-n1nc2c(c1-c1ccc(NC(N)=O)c(F)c1)CN(C(c1ccccc1)C(F)(F)F)CC2` (stereo not drawn) [Example 1.225] showed an IC50 of at most 5 nM.
For `Cc1cccc(OCC(C)C)c1-n1nc2c(c1-c1ccc(NC(N)=O)c(C#N)c1)CN(c1ncc(C(F)(F)F)cc1F)CC2` [Example 1.226], the IC50 was over 500 nM.
`CCc1cccc(CC)c1-n1nc2c(c1-c1ccc(NC(N)=O)c(F)c1)CN(c1ncc(Cl)cc1Cl)CC2` [Example 1.227] was tested, and the IC50 was at most 5 nM.
For `Cc1cccc(OCC(C)C)c1-n1nc2c(c1-c1ccc(NC(N)=O)c(F)c1)CN(c1ncc(F)cc1Cl)CC2` [Example 1.228], the IC50 was at most 5 nM.
Compound `Cc1cccc(OCC(C)C)c1-n1nc2c(c1-c1ccc(NC(N)=O)c(F)c1)CN(S(=O)(=O)c1ccccc1C(F)(F)F)CC2` [Example 1.229] has an IC50 of 5 to 50 nM.
`CCC(C)(C)N1CCc2nn(-c3c(C)cccc3OCC(C)C)c(-c3ccc(NC(N)=O)c(F)c3)c2C1` [Example 1.230] gave an IC50 of 5 to 50 nM.
Work on `CCCCN1CCc2nn(-c3c(C)cccc3OCC(C)C)c(-c3ccc(NC(N)=O)c(F)c3)c2C1` [Example 1.231] yielded an IC50 of 5 to 50 nM.
`Cc1cccc(OCC(C)C)c1-n1nc2c(c1-c1ccc(NC(N)=O)c(F)c1)CN(C(C)C1CCCCC1)CC2` (stereo not drawn) [Example 1.232] showed an IC50 of at most 5 nM.
Work on `Cc1cccc(OCC(C)C)c1-n1nc2c(c1-c1ccc(NC(N)=O)c(F)c1)CN(Cc1nccn1C)CC2` [Example 1.233] yielded an IC50 of over 500 nM.
In the case of `Cc1cccc(OCC(C)C)c1-n1nc2c(c1-c1ccc(NC(N)=O)c(F)c1)CN(Cc1nccs1)CC2` [Example 1.234], the IC50 is reported as 5 to 50 nM.
`CCc1cccc(CC)c1-n1nc2c(c1-c1ccc(NC(N)=O)c(F)c1)CN(C(C)CC)CC2` (stereo not drawn) [Example 1.235] was tested, and the IC50 was 5 to 50 nM.
For `Cc1cccc(OCC(C)C)c1-n1nc2c(c1-c1ccc(NC(N)=O)c(F)c1)CN(S(=O)(=O)c1ccccc1)CC2` [Example 1.237], the IC50 was 5 to 50 nM.
`Cc1cccc(OCC(C)C)c1-n1nc2c(c1-c1ccc(NC(N)=O)c(F)c1)CN(C(=O)C1CCCC1)CC2` [Example 1.238] showed an IC50 of 5 to 50 nM.
With `Cc1cccc(OCC(C)C)c1-n1nc2c(c1-c1ccc(NC(N)=O)c(F)c1)CN(C(C)CC(C)C)CC2` (stereo not drawn) [Example 1.239] the IC50 was at most 5 nM.
`Cc1cnc(N2CCc3nn(-c4c(C)cccc4OCC(C)C)c(-c4ccc(NC(N)=O)c(F)c4)c3C2)c(C(F)(F)F)c1` [Example 1.240] was tested, and the IC50 was at most 5 nM.
For `Cc1cccc(OCC(C)C)c1-n1nc2c(c1-c1ccc(NC(N)=O)c(F)c1)CN(c1ccc(C(F)(F)F)cc1Cl)CC2` [Example 1.241], the IC50 was at most 5 nM.
In the case of `Cc1cccc(OCC(C)C)c1-n1nc2c(c1-c1cc(F)c(NC(N)=O)cc1F)CN(c1ncc(C(F)(F)F)cc1F)CC2` [Example 1.242], the IC50 is reported as at most 5 nM.
`CCc1cccc(CC)c1-n1nc2c(c1-c1ccc(NC(N)=O)c(F)c1)CN(CC1CCCC1)CC2` [Example 1.243] showed an IC50 of at most 5 nM.
`CCc1cccc(CC)c1-n1nc2c(c1-c1ccc(NC(N)=O)c(F)c1)CN(Cc1ccccc1C(F)(F)F)CC2` [Example 1.244] gave an IC50 of at most 5 nM.
With `Cc1cccc(OCC(C)C)c1-n1nc2c(c1-c1ccc(NC(N)=O)c(F)c1)CN(c1nccn3ccnc13)CC2` [Example 1.245] the IC50 was 5 to 50 nM.
`Cc1cccc(OCC(C)C)c1-n1nc2c(c1-c1ccc(NC(N)=O)c(F)c1)CN(c1nc(Cl)ns1)CC2` [Example 1.246] showed an IC50 of 5 to 50 nM.
`CCCC(C)N1CCc2nn(-c3c(C)cccc3OCC(C)C)c(-c3ccc(NC(N)=O)c(F)c3)c2C1` (stereo not drawn) [Example 1.247] showed an IC50 of at most 5 nM.
Work on `Cc1cccc(OCC(C)C)c1-n1nc2c(c1-c1ccc(NC(N)=O)c(F)c1)CN(CC1CCOC1)CC2` (stereo not drawn) [Example 1.248] yielded an IC50 of 50 to 500 nM.
With `Cc1cccc(OCC(C)C)c1-n1nc2c(c1-c1ccc(NC(N)=O)c(F)c1)CN(c1ncc(F)cc1F)CC2` [Example 1.249] the IC50 was at most 5 nM.
In the case of `Cc1cccc(OCC(C)C)c1-n1nc2c(c1-c1ccc(NC(N)=O)c(F)c1)CN(c1cc(F)cnc1F)CC2` [Example 1.251], the IC50 is reported as 5 to 50 nM.
In the case of `Cc1cccc(OCC(C)C)c1-n1nc2c(c1-c1ccc(NC(N)=O)c(F)c1)CN(c1ncc(Cl)cc1Cl)CC2` [Example 1.252], the IC50 is reported as at most 5 nM.
With `CCc1cccc(CC)c1-n1nc2c(c1-c1ccc(NC(N)=O)c(F)c1)CN(CC(C)(C)C)CC2` [Example 1.253] the IC50 was at most 5 nM.
`Cc1cccc(OCC(C)C)c1-n1nc2c(c1-c1ccc(NC(N)=O)c(F)c1)CN(C(C)C1CCCC1)CC2` (stereo not drawn) [Example 1.254] gave an IC50 of at most 5 nM.
With `CCC(CC)N1CCc2nn(-c3c(C)cccc3OCC(C)C)c(-c3ccc(NC(N)=O)c(F)c3)c2C1` [Example 1.255] the IC50 was at most 5 nM.
`Cc1cccc(OCC(C)C)c1-n1nc2c(c1-c1ccc(NC(N)=O)c(F)c1)CN(CC1CCCCC1)CC2` [Example 1.256] gave an IC50 of at most 5 nM.
In the case of `Cc1cccc(OCC(C)C)c1-n1nc2c(c1-c1ccc(NC(N)=O)c(F)c1)CN([C@@H](C)C(C)C)CC2` [Example 1.257], the IC50 is reported as at most 5 nM.
`Cc1cccc(OCC(C)C)c1-n1nc2c(c1-c1ccc(NC(N)=O)cc1)CN(c1ncc(Cl)cc1Cl)CC2` [Example 1.258] showed an IC50 of 5 to 50 nM.
With `CCC(C)N1CCc2nn(-c3c(C)cccc3OCC(C)C)c(-c3ccc(NC(N)=O)c(F)c3)c2C1` (stereo not drawn) [Example 1.259] the IC50 was 5 to 50 nM.
`Cc1cccc(OCC(C)C)c1-n1nc2c(c1-c1ccc(NC(N)=O)cc1)CN(CC(C)(C)C)CC2(C)C` [Example 1.260] gave an IC50 of over 500 nM.
`Cc1cccc(OCC(C)C)c1-n1nc2c(c1-c1ccc(NC(N)=O)cc1)CN(Cc1cc(Cl)ccc1Cl)CC2(C)C` [Example 1.261] showed an IC50 of over 500 nM.
Work on `Cc1cccc(OCC(C)C)c1-n1nc2c(c1-c1ccc(NC(N)=O)c(F)c1)CN(CC(C)C(F)(F)F)CC2` (stereo not drawn) [Example 1.262] yielded an IC50 of at most 5 nM.
In the case of `Cc1cccc(OCC(C)C)c1-n1nc2c(c1-c1cc(F)c(NC(N)=O)c(F)c1)CN(c1ncc(C(F)(F)F)cc1F)CC2` [Example 1.263], the IC50 is reported as 50 to 500 nM.
With `Cc1cccc(OCC(C)C)c1-n1nc2c(c1-c1ccc(NC(N)=O)c(F)c1)CN(C(C)C)CC2` [Example 1.264] the IC50 was 50 to 500 nM.
In the case of `CCN1CCc2nn(-c3c(C)cccc3OCC(C)C)c(-c3ccc(NC(N)=O)c(F)c3)c2C1` [Example 1.265], the IC50 is reported as 50 to 500 nM.
Work on `Cc1cc(-c2c3c(nn2-c2c(C)cccc2OCC(C)C)CCN(c2ncc(C(F)(F)F)cc2F)C3)cc(C)c1NC(N)=O` [Example 1.266] yielded an IC50 of over 500 nM.
